For one series, the system named is PDE 4. In words: Inhibition of PDE 4 activity (method of Bauer and Schwabe, adapted to microtiter plates). Format: biochemical. To be noted: inhibitory concentration as -log IC50 (mol/l). As for the experimental part: 1. Inhibition of PDE 4 Activity
The activity test was carried out by the method of Bauer and Schwabe, which was adapted to microtiter plates (Naunyn-Schmiedeberg's Arch. Pharmacol. 1980, 311, 193-198). In this connection, the PDE reaction is carried out in the first step. In a second step, the resultant 5′-nucleotide is cleaved to give the uncharged nucleoside by a 5′-nucleotidase of the snake venom from Crotalus atrox. In the third step, the nucleoside is separated from the remaining charged substrate on ion exchange columns. The columns are eluted with 2 ml of 30 mM ammonium formate (pH 6.0) directly into minivials to which 2 ml of scintilation fluid is additionally added for counting.

By melting point is commonly meant the temperature, or range, at which the solid turns liquid. Take `CCOc1cc2c(cc1OC)C(c1ccc(-c3nnn(CC)n3)cc1)=N[C@H]1CCCC[C@@H]21` (racemic) [Compound 2, (+/−)-cis-9-Ethoxy-8-methoxy-6-[4-(2ethyl-2H-tetrazol-5-yl)phenyl]-1,2,3,4,4a,10b-hexahydrophenanthridine]: the melting point is 167 to 170 °C. The “Inhibition of the PDE 4 activity, −log IC50” value in the series with PDE 4 was determined as 8.78.

For the origin of these results see patent publication US6410551B1, “Tetrazole derivatives” (Byk Gulden Lomberg Chemische Fabrik GmbH, priority 1997, dated 2002).
